Measurements taken from patent US3932650A, “Trans-octahydropyridoindolobenzazepines as central nervous system depressants” (E. I. Du Pont de Nemours & Company, priority 1973, dated 1976).
Read-outs that look alike come from different tables or passages of the source.

Legend:
eyelid closure (ptosis) [1] = assay: Ptosis, mouse; type: in vivo; settings: po, read-out: Ptosis MED
catalepsy [2] = assay: Catalepsy, mouse; type: in vivo; settings: po, read-out: Catalepsy MED
From the text: (§1) The ability of an animal to remain in an abnormal position is used as another indication of central nervous system depressant activity. A test animal is removed from its observation cage and positioned so that its hind legs are on the table top and its front legs rest on the side of the observation cage. If an animal maintains this position for at least 10 seconds, it is considered to be showing cataleptic behavior.

eyelid closure (ptosis) [3] = assay: Ptosis, rat; type: in vivo; settings: po, read-out: Ptosis MED
From the text: Degree of eyelid closure is used as a measure of central nervous system depression. An animal is removed from its observation cage and allowed to remain outside the cage for 30 seconds. At the end of this time a rating of degree of eyelid closure is made on an arbitrary scale.

locomotor activity [4] = assay: Decreased Locomotor Activity (L.M.A.), rat; type: in vivo; settings: po, read-out: L.M.A. MED
Protocol: (§2) Decreased Locomotor Activity (L.M.A.)
(§3) This reaction sign is measured subjectively by observing how an animal behaves when it is removed from an observation cage and placed on a table top. […] The degree of stimulation by the observer needed to produce active locomotion is rated on an arbitrary scale. This ranges from a score of -1 where only a slight touch of the animal's body is required to a -4 where the animal is unresponsive or minimally responsive to the application of a pain stimulus (pressure at the base of the tail). The minimal effective dose (MED) is the lowest oral dose producting an obvious decrease of locomotor activity (with a score of at least -1). Groups of 3 mice are given decreasing oral doses at 0.5 log intervals (300, 100, 30. . .etc.) until no behavioral effects are evident. Decrease of locomotor activity is indicative of general central nervous system depressant activity.

locomotor activity [5] = assay: Decreased Locomotor Activity (L.M.A.), mouse; type: in vivo; settings: po, read-out: L.M.A. MED
Protocol: as §2, §3

catalepsy [6] = assay: Catalepsy, rat; type: in vivo; settings: po, read-out: Catalepsy MED
From the text: as §1

[7] = tested on: phenyl-p-benzoquinone-induced writhing; assay: Phenylquinone Writhing (P.Q.W.); type: in vivo, mouse; settings: po
[8] = tested on: fear / feeding in approach-avoidance conflict; assay: Rat Conflict (Approach-Avoidance) Test; type: in vivo; settings: po, read-out: Conflict MED
Protocol: Rat Conflict (Approach-Avoidance) Test (Conflict)
Results given in: mg/kg po/rat
Food deprived rats are trained to pass from one compartment to an adjacent one to obtain food. The training consists of 3 exposures to the test situation on day one of the experiment. The rats are given limited (1-2 hr) free access to food in their home cages on day one and are then food deprived for at least 18 hours. On day two of the experiment, the rats are given a control exposure to the test situation followed by a second exposure after one-half to 1 hour in which they are shocked after crossing and eating. Groups of 6-8 rats are then dosed orally with solvent or test compound and then re-exposed to the test situation after 1 or 2 hours.
Compounds showing minor tranquilizer (anxiolytic) activity in man such as diazepam and meprobamate produce an apparent decreased fear in the test animals so that they cross to obtain food despite having received a shock earlier. This effect is dose-related (and the MED is the minimum dose at which this effect is obtained); rats dosed with solvent only consistently show a high level of fear as evidenced by decreased mobility and absence of feeding when placed in the test situation after receiving a shock.

taming = assay: Rhesus Monkey Taming Effects; type: in vivo; settings: Macaca mulatta, po, read-out: Taming MED
Protocol: Rhesus Monkey Taming Effects (Taming):
Results given in: mg/kg po/monkey
Compounds are administered orally to groups of 6 rhesus monkeys. The behavior of the animals is then evaluated by observational means. Taming effects are determined by the ability of the observer to approach and touch the monkey. Compounds with major tranquilizer activity in man can produce a state of passive tameness in the rhesus monkey wherein it can be touched without provoking any of the threatening or aggressive behavior seen in the normal animal. The MED is the minimal oral dose at which some taming effect can be observed.

[9] = tested on: conditioned avoidance response; assay: Dog Conditioned Avoidance Response (C.A.R.); type: in vivo; settings: Canis lupus familiaris, po, read-out: C.A.R. ED50
Protocol: Dog Conditioned Avoidance Response (C.A.R.):
Results given in: mg/kg po/dog
Dogs are trained to raise a forelimb when presented with a conditioned stimulus (light) in order to avoid an electric shock. Blocks of 10 trials are given to groups of 4 dogs during a pretreatment period and at 1, 2, and 4 hours after oral administration of the test compound. The ED50 values are calculated as the dose causing 50% of the animals to show 5 or more incorrect responses. Blocking of the C.A.R. at non-toxic doses appears to correlate with major tranquilizer activity in man.

TBZ-induced ptosis [10] = assay: Tetrabenazine Antagonism (T.B.Z.A.), mouse; type: in vivo; settings: po, 1 h, read-out: T.B.Z.A. ED50
Protocol: (§4) Tetrabenazine Antagonism (T.B.Z.A.)
(§5) The tetrabenazine (TBZ) antagonism test is used to test for potential antidepressant-like activity in rodents. One hour after oral administration of a test compound, a 40 mg/kg dose of TBZ is given subcutaneously. Thirty minutes after TBZ administration, the mice are placed in the center of a circle; the diameter of the circle is twice the body length of the mouse or rat. After 30 seconds, a reading is made of the degree of ptosis and whether the animal has moved out of the circle. Animals that have received only TBZ will show marked ptosis and immobility. Tricyclic antidepressants of the imipramine type will antagonize the ptosis but not the immobility. Antidepressants of the amphetamine or monoamine oxidase inhibitory type will antagonize both the ptosis and immobility induced by TBZ. The ED50 is the dose producing antagonism of TBZ-induced ptosis, but not of TBZ-induced immobility, in 50% of the animals.

[11] = tested on: conditioned avoidance response; assay: Conditioned Avoidance Response (C.A.R.), rat; type: in vivo; settings: po, read-out: C.A.R. ED50
Protocol: (§6) Mouse and Rat Conditioned Avoidance Response (C.A.R.):
(§7) Mice and rats are trained to jump out of a pit onto a ledge to avoid shock when presented with a light and sound conditioned stimulus. The animals are tested 1, 2, and 4 hours after administration of the test compound. Three to four dose levels and groups of 4-8 animals/dose are used. The ED50 is the dose producing a block of the C.A.R. in 50% of the animals. Blocking of the C.A.R. at non-toxic doses appears to correlate with major tranquilizer activity in man.

[12] = tested on: conditioned avoidance response; assay: Conditioned Avoidance Response (C.A.R.), mouse; type: in vivo; settings: po, read-out: C.A.R. ED50
Protocol: as §6, §7

TBZ-induced ptosis [13] = assay: Tetrabenazine Antagonism (T.B.Z.A.), rat; type: in vivo; settings: po, 1 h, read-out: T.B.Z.A. ED50
Protocol: as §4, §5

[14] = 0.5 h, mouse, phenyl-p-benzoquinone 2.5 mg/kg i.p. 30 minutes after compound, read-out: P.Q.W. ED50
[15] = dog, 5 or more incorrect responses in 50% of animals, 1, 2, and 4 hours
[16] = mouse, TBZ 40 mg/kg s.c. one hour after compound
[17] = rat, block of C.A.R. in 50% of animals, 1, 2, and 4 hours
[18] = mouse, block of C.A.R. in 50% of animals, 1, 2, and 4 hours
[19] = rat, TBZ 40 mg/kg s.c. one hour after compound

SMILES	minimal effective dose (eyelid closure (ptosis) [1]; mouse, passive ptosis) [mg/kg]	minimal effective dose (catalepsy [2]; mouse) [mg/kg]	minimal effective dose (eyelid closure (ptosis) [3]; rat, passive ptosis) [mg/kg]	minimal effective dose (locomotor activity [4]; minimal effective dose) [mg/kg]	minimal effective dose (locomotor activity [5]; mouse, minimal effective dose) [mg/kg]	minimal effective dose (catalepsy [6]; rat) [mg/kg]	ED50 [7, 14] [mg/kg]	also measured
c1ccc(CN2CC[C@@H]3[C@@H](C2)c2cccc4c2N3c2ccccc2CC4)cc1 (relative stereo) [Example 6, trans-3-Benzyl-1,2,3,4,4a,8,9,14a-octahydropyrido[4',3':2,3]indolo[1,7-ab][1]benzazepine]	13	49	150	65	2	> 300	28	–
c1ccc2c(c1)CCc1cccc3c1N2[C@H]1CCN(C[C@H]2[C@@H]4CCCC[C@@H]42)C[C@H]31 (relative stereo) [Example 7, trans-1,2,3,4,4a,8,9,14a-Octahydro-3-(exo-7-norcarylmethyl)pyrido[4',3':2,3] indolo[1,7-ab][1]benzazepine]	3	3	3	3	3	300	14	–
Cl.c1ccc2c(c1)CCc1cccc3c1N2[C@@H]1CCN(CC2CCCC2)C[C@@H]31 (relative stereo) [cyclopentylmethyl, trans-3-cyclopentylmethyl1,2,3,4,4a,8,9,14a-octahydropyrido[4',3':2,3]indolo[1,7-ab][1]benzazepine hydrochloride]	–	–	–	–	–	–	2	–
CN1CC[C@H]2[C@@H](C1)c1cccc3c1N2c1ccccc1CC3 (relative stereo) [methyl octahydro cis]	–	–	–	–	–	–	–	minimal effective dose ([8]; Rattus norvegicus): > 40 mg/kg; minimal effective dose (eyelid closure (ptosis) [1]; Mus musculus): > 300 mg/kg; minimal effective dose (taming): > 20 mg/kg; minimal effective dose (catalepsy [2]; Mus musculus): > 300 mg/kg; minimal effective dose (eyelid closure (ptosis) [3]; Rattus norvegicus): > 300 mg/kg; ED50 ([9]; 4 h): > 30 mg/kg; minimal effective dose (locomotor activity [4]): 30 mg/kg; ED50 (TBZ-induced ptosis [10]; Mus musculus): 15 mg/kg; ED50 ([11]; Rattus norvegicus, 4 h): > 40 mg/kg; minimal effective dose (locomotor activity [5]; Mus musculus): 30 mg/kg; minimal effective dose (catalepsy [6]; Rattus norvegicus): > 300 mg/kg; ED50 ([12]; Mus musculus, 4 h): > 40 mg/kg; ED50 (TBZ-induced ptosis [13]; Rattus norvegicus): 7.4 mg/kg
c1ccc(CCN2CC[C@H]3[C@H](C2)c2cccc4c2N3c2ccccc2CC4)cc1 (relative stereo) [phenethyl, trans-1,2,3,4,4a,8,9,14a-octahydro-3-phenethylpyrido[4',3+:2,3]indolo[1,7-ab][1]benzazepine]	–	–	–	–	–	–	4.7	–
c1ccc2c(c1)CCc1cccc3c4c(n-2c13)CCN(CC1CC1)C4 [(cyclopropylmethyl) hexahydro, 3-(cyclopropylmethyl)-1,2,3,4,8,9-hexahydropyrido[4',3':2,3]indolo[1,7-ab][1]benzazepine]	30	30	30	10	10	30	–	minimal effective dose ([8]; rat, after 1 or 2 hours): 10 mg/kg; minimal effective dose (taming; rhesus monkey): 3 mg/kg; ED50 [9, 15]: > 30 mg/kg; ED50 (TBZ-induced ptosis [10]; [16]): > 100 mg/kg; ED50 [11, 17]: 40 mg/kg; ED50 [12, 18]: 20 mg/kg; ED50 (TBZ-induced ptosis [13]; [19]): > 100 mg/kg
COc1ccc2c3c1O[C@H]1[C@@H](O)C=C[C@H]4[C@@H](C2)N(C)CC[C@@]341 [Codeine phosphate]	–	–	–	–	–	–	–	ED50 ([7]; Mus musculus, read-out: Analgesic ED50): 19 mg/kg
CC(=O)Oc1ccccc1C(=O)O [aspirin]	–	–	–	–	–	–	94	–
c1ccc(CN2CCc3c(c4cccc5c4n3-c3ccccc3CC5)C2)cc1 [benzyl hexahydro, 3-benzyl-1,2,3,4,8,9-hexahydropyrido[4',3':2,3]indolo[1,7-ab][1] benzazepine]	> 300	> 300	> 300	> 300	~200	> 300	–	–
COc1ccc2c3c1O[C@H]1[C@@H](O)C=C[C@H]4[C@@H](C2)N(C)CC[C@@]341 [codeine]	–	–	–	–	–	–	–	ED50 ([7]; Mus musculus, 0.5 h, read-out: P.Q.W. ED50): 19 mg/kg
CCN1CCc2c(c3cccc4c3n2-c2ccccc2CC4)C1 [ethyl hexahydro]	30	> 300	> 300	30	30	> 300	–	minimal effective dose ([8]; rat, after 1 or 2 hours): 20 mg/kg; minimal effective dose (taming; rhesus monkey): > 20 mg/kg; ED50 [9, 15]: > 30 mg/kg; ED50 (TBZ-induced ptosis [10]; [16]): > 100 mg/kg; ED50 [11, 17]: > 40 mg/kg; ED50 [12, 18]: > 40 mg/kg; ED50 (TBZ-induced ptosis [13]; [19]): > 100 mg/kg
CC(C)CN1CCc2c(c3cccc4c3n2-c2ccccc2CC4)C1 [isobutyl hexahydro]	~60	~60	–	–	~60	–	–	–
CN1CCc2c(c3cccc4c3n2-c2ccccc2CC4)C1 [methyl hexahydro, 1,2,3,4,8,9-hexahydro-3-methylpyrido[4',3':2,3]indolo[1,7-ab][1]benzazepine]	30	300	30	30	10	100	–	minimal effective dose ([8]; rat, after 1 or 2 hours): 20 mg/kg; minimal effective dose (taming; rhesus monkey): 10 mg/kg; ED50 [9, 15]: > 30 mg/kg; ED50 (TBZ-induced ptosis [10]; [16]): > 100 mg/kg; ED50 [11, 17]: 30 mg/kg; ED50 [12, 18]: 20 mg/kg; ED50 (TBZ-induced ptosis [13]; [19]): > 100 mg/kg
